Results reported in ChEMBL document CHEMBL1201862, “PubChem BioAssay data set” (2004).
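A five-concentration, 48-hour dose response in 96-well plates underlies each endpoint, interpolated linearly between surrounding concentrations. Abbreviation: GI50, concentration required for 50% inhibition of growth.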 Active and inactive are the calls of the source. Cut-off read from the data, not from the text of the source: active = GI50 up to about 1.1 µM and inactive = higher.

Assays:
Experiment in all cases: NCI tumour cell line growth inhibition, 48 h
HOP-92 = test system: HOP-92
SF-268 = test system: SF-268
MDA-MB-231 = test system: MDA-MB-231
SK-MEL-5 = test system: SK-MEL-5
OVCAR-5 = test system: OVCAR-5
TK-10 = test system: TK-10
UO-31 = test system: UO-31
HCC 2998 = test system: HCC 2998
NCI/ADR-RES = test system: NCI/ADR-RES
SK-MEL-2 = test system: SK-MEL-2
ACHN = test system: ACHN
HOP-62 = test system: HOP-62
SF-539 = test system: SF-539
OVCAR-4 = test system: OVCAR-4
NCI-H226 = test system: NCI-H226
UACC-257 = test system: UACC-257
NCI-H23 = test system: NCI-H23
MDA-N = test system: MDA-N
SW-620 = test system: SW-620
SK-MEL-28 = test system: SK-MEL-28

Structure (SMILES)	GI50 (HOP-92)	GI50 (SF-268)	GI50 (MDA-MB-231)	GI50 (SK-MEL-5)	GI50 (OVCAR-5)	GI50 (TK-10)	GI50 (UO-31)	GI50 (HCC 2998)	GI50 (NCI/ADR-RES)	GI50 (SK-MEL-2)	GI50 (ACHN)	GI50 (HOP-62)	GI50 (SF-539)	GI50 (OVCAR-4)	GI50 (NCI-H226)	GI50 (UACC-257)	GI50 (NCI-H23)	GI50 (MDA-N)	GI50 (SW-620)	GI50 (SK-MEL-28)
Fc1ccc(C(OCCN2CCN(CCCCl)CC2)c2ccc(F)cc2)cc1	12.5 µM (inactive)	24.5 µM (inactive)	26.5 µM (inactive)	18 µM (inactive)	23.1 µM (inactive)	36.7 µM (inactive)	18.4 µM (inactive)	18.5 µM (inactive)	24.7 µM (inactive)	24.2 µM (inactive)	46 µM (inactive)	33 µM (inactive)	18.7 µM (inactive)	24.9 µM (inactive)	20.5 µM (inactive)	21 µM (inactive)	22.3 µM (inactive)	20.7 µM (inactive)	32.2 µM (inactive)	38.4 µM (inactive)
O=c1[nH]c(=O)n(C2CC(O)C(COP(=O)(OCC(Cl)(Cl)Cl)OCC(Cl)(Cl)Cl)O2)cc1F (centres undefined)	6.9 µM (inactive)	1.24 µM (inactive)	> 47 µM (inactive)	1.97 µM (inactive)	> 94.2 µM (inactive)	> 100 µM (inactive)	0.301 µM (active)	< 0.01 µM (active)	1.29 µM (inactive)	> 100 µM (inactive)	0.298 µM (active)	0.115 µM (active)	–	> 76 µM (inactive)	95.1 µM (inactive)	> 100 µM (inactive)	8.63 µM (inactive)	> 26 µM (inactive)	> 100 µM (inactive)	> 28.6 µM (inactive)
COC(=O)[C@@H]1Cc2cc(O)c(O)cc2C2(CCN(C)CC2)O1	> 10 µM (inactive)	> 10 µM (inactive)	> 10 µM (inactive)	> 10 µM (inactive)	> 10 µM (inactive)	> 10 µM (inactive)	–	> 10 µM (inactive)	> 10 µM (inactive)	> 10 µM (inactive)	> 10 µM (inactive)	> 10 µM (inactive)	> 10 µM (inactive)	> 10 µM (inactive)	> 10 µM (inactive)	> 10 µM (inactive)	> 10 µM (inactive)	> 10 µM (inactive)	> 10 µM (inactive)	> 10 µM (inactive)
CN(C)c1ccc(/C=C(\NC(=O)c2ccccc2)C2NC(Cc3c[nH]c4ccccc34)C(=O)O2)cc1 (centres undefined)	> 24.1 µM (inactive)	11.6 µM (inactive)	> 50.4 µM (inactive)	8.85 µM (inactive)	> 83.6 µM (inactive)	–	17.3 µM (inactive)	6.12 µM (inactive)	> 100 µM (inactive)	27.3 µM (inactive)	8.85 µM (inactive)	41.2 µM (inactive)	–	12.3 µM (inactive)	> 100 µM (inactive)	40.6 µM (inactive)	14 µM (inactive)	34.8 µM (inactive)	9.42 µM (inactive)	> 100 µM (inactive)
CN1CCN(C2=CC(=O)c3c(O)ccc(O)c3C2=O)CC1	1.86 µM (inactive)	1.57 µM (inactive)	1.46 µM (inactive)	0.179 µM (active)	–	2.74 µM (inactive)	1.55 µM (inactive)	1.82 µM (inactive)	1.04 µM (active)	2.45 µM (inactive)	1.54 µM (inactive)	1 µM (active)	1.61 µM (inactive)	2.02 µM (inactive)	1.59 µM (inactive)	0.244 µM (active)	1.4 µM (inactive)	0.175 µM (active)	0.618 µM (active)	1.64 µM (inactive)
O=C1CCCC1CC(CN1CCOCC1)Sc1nnnn1-c1ccccc1 (centres undefined)	> 100 µM (inactive)	–	72.3 µM (inactive)	> 100 µM (inactive)	72.6 µM (inactive)	–	96.8 µM (inactive)	> 100 µM (inactive)	> 100 µM (inactive)	> 100 µM (inactive)	31 µM (inactive)	> 100 µM (inactive)	> 100 µM (inactive)	> 100 µM (inactive)	> 100 µM (inactive)	> 100 µM (inactive)	> 100 µM (inactive)	> 100 µM (inactive)	> 100 µM (inactive)	> 100 µM (inactive)
NNC(=O)c1ccccc1NC(=O)/C(=C/c1ccccc1O)NC(=O)c1ccccc1	38.9 µM (inactive)	12.8 µM (inactive)	20.3 µM (inactive)	72.3 µM (inactive)	> 100 µM (inactive)	> 100 µM (inactive)	11.9 µM (inactive)	10.9 µM (inactive)	15.6 µM (inactive)	–	17.9 µM (inactive)	–	20.1 µM (inactive)	27.3 µM (inactive)	26.5 µM (inactive)	> 100 µM (inactive)	38.4 µM (inactive)	4.56 µM (inactive)	> 100 µM (inactive)	> 100 µM (inactive)
COc1cc(-c2oc3ccccc3c(=O)c2O)cc(OC)c1OC	4.06 µM (inactive)	11.7 µM (inactive)	42.4 µM (inactive)	6.58 µM (inactive)	> 100 µM (inactive)	29 µM (inactive)	4.63 µM (inactive)	> 100 µM (inactive)	4.32 µM (inactive)	> 100 µM (inactive)	6.9 µM (inactive)	6.04 µM (inactive)	26.3 µM (inactive)	7 µM (inactive)	–	> 69.3 µM (inactive)	61 µM (inactive)	> 26.1 µM (inactive)	> 80.2 µM (inactive)	> 100 µM (inactive)
[O-][Cl+3]([O-])([O-])[O-].[O-][Cl+3]([O-])([O-])[O-].c1ccn2c(N3CCOCC3)[n+]3c4ccccc4[n+]4c(N5CCOCC5)n5ccccc5c4c3c2c1	> 100 µM (inactive)	19 µM (inactive)	> 100 µM (inactive)	34 µM (inactive)	> 100 µM (inactive)	> 100 µM (inactive)	–	> 100 µM (inactive)	> 100 µM (inactive)	> 100 µM (inactive)	> 100 µM (inactive)	–	65.3 µM (inactive)	> 100 µM (inactive)	79.4 µM (inactive)	68.9 µM (inactive)	> 100 µM (inactive)	63.5 µM (inactive)	> 100 µM (inactive)	> 100 µM (inactive)
CC(NC(=O)/C(=C/c1ccccc1O)NC(=O)c1ccccc1)C(=O)O (centres undefined)	22.2 µM (inactive)	15.8 µM (inactive)	22 µM (inactive)	55.2 µM (inactive)	> 100 µM (inactive)	44.3 µM (inactive)	17.5 µM (inactive)	9.23 µM (inactive)	12.7 µM (inactive)	–	19.1 µM (inactive)	–	18.1 µM (inactive)	40.4 µM (inactive)	14 µM (inactive)	70 µM (inactive)	> 100 µM (inactive)	8.13 µM (inactive)	> 100 µM (inactive)	> 100 µM (inactive)
COc1cc(C2c3cc4c(cc3[C@H](NC(=O)c3cccs3)C3COC(=O)[C@H]23)OCO4)cc(OC)c1OC (some centres undefined)	0.0198 µM (active)	< 0.0195 µM (active)	< 0.01 µM (active)	< 0.014 µM (active)	> 46.9 µM (inactive)	> 40.9 µM (inactive)	0.0811 µM (active)	< 0.0181 µM (active)	0.026 µM (active)	34.1 µM (inactive)	< 0.0174 µM (active)	< 0.0144 µM (active)	< 0.01 µM (active)	–	0.668 µM (active)	–	< 0.0143 µM (active)	< 0.01 µM (active)	< 0.016 µM (active)	0.0708 µM (active)
CC1(C)OCC2OC3([C@H]4OC(C)(C)O[C@@H]4CO)OC(C)(C)OC3C2O1 (some centres undefined)	> 100 µM (inactive)	–	> 100 µM (inactive)	> 100 µM (inactive)	> 100 µM (inactive)	–	> 100 µM (inactive)	> 100 µM (inactive)	> 100 µM (inactive)	> 100 µM (inactive)	> 100 µM (inactive)	> 100 µM (inactive)	> 100 µM (inactive)	> 100 µM (inactive)	> 100 µM (inactive)	> 100 µM (inactive)	> 100 µM (inactive)	> 100 µM (inactive)	> 100 µM (inactive)	> 100 µM (inactive)
CCCC(O)c1cn(C(NC(=O)c2ccccc2)P(=O)(OCC)OCC)nn1 (centres undefined)	> 100 µM (inactive)	> 100 µM (inactive)	> 100 µM (inactive)	> 100 µM (inactive)	–	> 100 µM (inactive)	> 100 µM (inactive)	> 100 µM (inactive)	> 100 µM (inactive)	> 100 µM (inactive)	> 100 µM (inactive)	> 100 µM (inactive)	> 100 µM (inactive)	> 100 µM (inactive)	> 100 µM (inactive)	> 100 µM (inactive)	> 100 µM (inactive)	> 100 µM (inactive)	> 100 µM (inactive)	> 100 µM (inactive)
NNC(=O)CNC(=O)CSc1nnc(COc2ccc(Cl)cc2)n1-c1ccccc1	> 100 µM (inactive)	> 100 µM (inactive)	> 100 µM (inactive)	–	> 100 µM (inactive)	> 100 µM (inactive)	> 100 µM (inactive)	> 100 µM (inactive)	> 100 µM (inactive)	> 100 µM (inactive)	> 100 µM (inactive)	> 100 µM (inactive)	> 100 µM (inactive)	> 100 µM (inactive)	> 100 µM (inactive)	> 100 µM (inactive)	> 100 µM (inactive)	> 100 µM (inactive)	> 100 µM (inactive)	> 100 µM (inactive)
COC(=O)c1cc(Br)c(C(=O)C(Cl)(Cl)Cl)[nH]1	> 100 µM (inactive)	> 100 µM (inactive)	> 100 µM (inactive)	> 100 µM (inactive)	> 100 µM (inactive)	> 100 µM (inactive)	> 100 µM (inactive)	–	> 100 µM (inactive)	> 100 µM (inactive)	> 100 µM (inactive)	> 100 µM (inactive)	> 100 µM (inactive)	> 100 µM (inactive)	> 100 µM (inactive)	> 100 µM (inactive)	> 100 µM (inactive)	> 100 µM (inactive)	> 100 µM (inactive)	> 100 µM (inactive)
